Results taken from PMC3262757 (Chemistry Central Journal, 2011).

Tests used:
[1] = tested on: JNK1; format: cell-based
[2] = tested on: JNK2; format: cell-based

SMILES: CCOc1nc(NC(=O)Cc2cc(OC)c(NC(C)=O)cc2OC)cc(N)c1C#N [compound 2, 2-(4-acetylamino-2,5-dimethoxyphenyl)-N-(4-amino-5-cyano-6-ethoxypyridin-2-yl)acetamide]
- IC50 [1]: ~1500 nM
- IC50 [2]: ~1500 nM
